Data on 22 compounds can be found in patent US12624018B1, “Inhibitors of RIPK2 and medical uses thereof” (Odyssey Therapeutics, Inc., priority 2022, dated 2026).

Where only a bound is given, the exact number is not on record here.

In this test the target is T1, RIPK2 enzyme (Homo sapiens, UniProt O43353).
T1 construct: purchased Carna 09-128
T1 sequence (O43353 1-299 limits assumed): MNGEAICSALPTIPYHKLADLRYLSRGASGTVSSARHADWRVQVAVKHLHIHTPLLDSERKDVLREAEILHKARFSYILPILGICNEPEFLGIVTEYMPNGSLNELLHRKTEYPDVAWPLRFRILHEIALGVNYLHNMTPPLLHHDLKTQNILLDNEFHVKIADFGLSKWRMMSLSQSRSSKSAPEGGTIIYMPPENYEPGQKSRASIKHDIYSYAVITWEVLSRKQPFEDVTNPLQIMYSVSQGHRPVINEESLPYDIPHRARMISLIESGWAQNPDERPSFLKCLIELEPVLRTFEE
Nature of the test: RIPK2 inhibition (ADP-Glo Kinase Assay). The format is biochemical. To be noted: RIPK2 5 nM, ATP 150 μM, MBP substrate, read-out: RIPK2 IC50. An outline of the steps: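 Human RIPK2 (5 nM) preincubated with compound 30 min at room temperature in 50 mM HEPES pH 7.5, 10 mM MgCl2, 2 mM DTT, 1 mM EGTA, 0.01% Brij-35, 0.05% BSA; native swine MBP as substrate. ADP formed quantified by ADP-Glo luminescence; percent inhibition relative to DMSO and no-enzyme controls.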
Background: ADP-Glo first removes unused ATP, then detects ADP through luciferase.
For `CN1CCC(Cc2ccc3nccc(Oc4cnc(CC(=O)Nc5cnn(C(C)(C)C)c5)c(F)c4)c3c2)CC1` [Compound 139, N-(1-(tert-butyl)-1H-pyrazol-4-yl)-2-(3-fluoro-5-((6-((1-methylpiperidin-4-yl)methyl)quinolin-4-yl)oxy)pyridin-2-yl)acetamide], the IC50 stood at 3.2 nM.
Next, `[2H]C([2H])([2H])n1nc(NC(=O)Cc2ccc(Oc3ccnc4ccc(S(C)(=O)=O)cc34)cc2F)cc1C(C)(C)C` [Compound 142, N-(5-(tert-butyl)-1-(methyl-d3)-1H-pyrazol-3-yl)-2-(2-fluoro-4-((6-(methylsulfonyl)quinolin-4-yl)oxy)phenyl)acetamide]: below 2.5 nM; `CC(C)c1cc(NC(=O)Cc2ccc(Oc3ccnc4ccc(S(C)(=O)=O)cc34)cc2F)n[nH]1` [Compound 143, 2-(2-fluoro-4-((6-(methylsulfonyl)quinolin-4-yl)oxy)phenyl)-N-(5-isopropyl-1H-pyrazol-3-yl)acetamide]: below 2.5 nM.
Next, `CC(C)c1cc(NC(=O)Cc2ccc(Oc3ccnc4ccc(S(C)(=O)=O)cc34)cc2F)nn1C` [Compound 144, 2-(2-fluoro-4-((6-(methylsulfonyl)quinolin-4-yl)oxy)phenyl)-N-(5-isopropyl-1-methyl-1H-pyrazol-3-yl)acetamide]: below 2.5 nM.
Next, `CS(=O)(=O)c1ccc2nccc(Oc3ccc(CC(=O)Nc4cc(C5CC5)[nH]n4)c(F)c3)c2c1` [Compound 145, N-(5-cyclopropyl-1H-pyrazol-3-yl)-2-(2-fluoro-4-((6-(methylsulfonyl)quinolin-4-yl)oxy)phenyl)acetamide]: 3.1 nM; `Cn1nc(NC(=O)Cc2ccc(Oc3ccnc4ccc(S(C)(=O)=O)cc34)cc2F)cc1C1CC1` [Compound 146, N-(5-cyclopropyl-1-methyl-1H-pyrazol-3-yl)-2-(2-fluoro-4-((6-(methylsulfonyl)quinolin-4-yl)oxy)phenyl)acetamide]: below 2.5 nM.
`CCn1nc(NC(=O)Cc2ccc(Oc3ccnc4ccc(S(C)(=O)=O)cc34)cc2F)cc1C(C)(C)C` [Compound 147, N-(5-(tert-butyl)-1-ethyl-1H-pyrazol-3-yl)-2-(2-fluoro-4-((6-(methylsulfonyl)quinolin-4-yl)oxy)phenyl)acetamide]: the IC50 was below 2.5 nM.
With `CCn1nc(NC(=O)Cc2ccc(Oc3ccnc4ccc(S(C)(=O)=O)cc34)cc2F)cc1C(C)C` [Compound 148, N-(1-ethyl-5-isopropyl-1H-pyrazol-3-yl)-2-(2-fluoro-4-((6-(methylsulfonyl)quinolin-4-yl)oxy)phenyl)acetamide], the IC50 was below 2.5 nM.
Next, `Cc1cc(CC(=O)Nc2cnn(C(C)(C)C)c2)ccc1Oc1ccnc2ccc(S(=O)(=O)C3CN(C)C3)cc12` [Compound 149, N-(1-(tert-butyl)-1H-pyrazol-4-yl)-2-(3-methyl-4-((6-((1-methylazetidin-3-yl)sulfonyl)quinolin-4-yl)oxy)phenyl)acetamide]: below 2.5 nM; `CC(=O)N1CCC(Oc2ccc3nccc(Oc4cnc(CC(=O)Nc5cnn(C(C)(C)C)c5)c(F)c4)c3c2)CC1` [Compound 150, 2-(5-((6-((1-acetylpiperidin-4-yl)oxy)quinolin-4-yl)oxy)-3-fluoropyridin-2-yl)-N-(1-(tert-butyl)-1H-pyrazol-4-yl)acetamide]: 4.1 nM; `CC(=O)N1CCC(Oc2ccc3nccc(Oc4ccc(CC(=O)Nc5cnn(C(C)(C)C)c5)c(F)c4)c3c2)CC1` [Compound 151, 2-(4-((6-((1-acetyl-piperidin-4-yl)oxy)quinolin-4-yl)oxy)-2-fluoro-phenyl)-N-(1-(tert-butyl)-1H-pyrazol-4-yl)acetamide]: below 2.5 nM.
Next, `CC(C)(C)n1cc(NC(=O)Cc2ccc(Oc3ccnc4ccc(N5CCCC5=O)cc34)cc2F)cn1` [Compound 152, N-(1-(tert-butyl)-1H-pyrazol-4-yl)-2-(2-fluoro-4-((6-(2-oxopyrrolidin-1-yl)quinolin-4-yl)oxy)phenyl) acetamide]: below 2.5 nM.
Next, `CC(C)(C)n1cc(NC(=O)Cc2ccc(Oc3ccnc4ccc(N5CCCCC5=O)cc34)cc2F)cn1` [Compound 153, N-(1-(tert-butyl)-1H-pyrazol-4-yl)-2-(2-fluoro-4-((6-(2-oxopiperidin-1-yl)quinolin-4-yl)oxy)phenyl) acetamide]: 2.7 nM; `CC(C)(C)n1cc(NC(=O)Cc2ccc(Oc3ccnc4ccc(N5CCOCC5=O)cc34)cc2F)cn1` [Compound 154, N-(1-(tert-butyl)-1H-pyrazol-4-yl)-2-(2-fluoro-4-((6-(3-oxomorpholino)quinolin-4-yl)oxy)phenyl) acetamide]: below 2.5 nM; `CC(C)(C)n1cc(NC(=O)Cc2ccc(Oc3ccnc4ccc(N5CCNCC5=O)cc34)cc2F)cn1` [Compound 155, N-(1-(tert-butyl)-1H-pyrazol-4-yl)-2-(2-fluoro-4-((6-(2-oxopiperazin-1-yl)quinolin-4-yl)oxy)phenyl) acetamide]: 2.5 nM.
In the case of `CN1CCN(c2ccc3nccc(Oc4ccc(CC(=O)Nc5cnn(C(C)(C)C)c5)c(F)c4)c3c2)C(=O)C1` [Compound 156, N-(1-(tert-butyl)-1H-pyrazol-4-yl)-2-(2-fluoro-4-((6-(4-methyl-2-oxopiperazin-1-yl)quinolin-4-yl)oxy)phenyl) acetamide], the IC50 worked out at 4.5 nM.
Next, `CC(C)(C)n1cc(NC(=O)Cc2ccc(Oc3ccnc4ccc(-n5ccccc5=O)cc34)cc2F)cn1` [Compound 157, N-(1-(tert-butyl)-1H-pyrazol-4-yl)-2-(2-fluoro-4-((6-(2-oxopyridin-1(2H)-yl)quinolin-4-yl)oxy)phenyl) acetamide]: 5.2 nM; `CC(C)(C)n1cc(NC(=O)Cc2ccc(Oc3ncnc4ccc(OC5CCNCC5)cc34)c(Cl)c2)cn1` [Compound 158, N-(1-(tert-butyl)-1H-pyrazol-4-yl)-2-(3-chloro-4-((6-(piperidin-4-yloxy)quinazolin-4-yl)oxy)phenyl) acetamide]: below 2.5 nM.
Next, `CN1CCC(Oc2ccc3ncnc(Oc4ccc(CC(=O)Nc5cnn(C(C)(C)C)c5)cc4Cl)c3c2)CC1` [Compound 159, N-(1-(tert-butyl)-1H-pyrazol-4-yl)-2-(3-chloro-4-((6-((1-methyl-piperidin-4-yl)oxy)quinazolin-4-yl)oxy)phenyl) acetamide]: below 2.5 nM; `CCN1CCC(Oc2ccc3ncnc(Oc4ccc(CC(=O)Nc5cnn(C(C)(C)C)c5)cc4Cl)c3c2)CC1` [Compound 160, N-(1-(tert-butyl)-1H-pyrazol-4-yl)-2-(3-chloro-4-((6-((1-ethyl-piperidin-4-yl)oxy)quinazolin-4-yl)oxy)phenyl) acetamide]: below 2.5 nM.
Next, `CC(C)(C)n1cc(NC(=O)Cc2ccc(Oc3ccnc4ccc(OC5CCNCC5)cc34)c(F)c2)cn1` [Compound 161, N-(1-(tert-butyl)-1H-pyrazol-4-yl)-2-(3-fluoro-4-((6-(piperidin-4-yloxy)quinolin-4-yl)oxy)phenyl) acetamide]: below 2.5 nM.
On to `CN1CCC(Oc2ccc3nccc(Oc4ccc(CC(=O)Nc5cnn(C(C)(C)C)c5)cc4F)c3c2)CC1` [Compound 162, N-(1-(tert-butyl)-1H-pyrazol-4-yl)-2-(3-fluoro-4-((6-((1-methyl-piperidin-4-yl)oxy)quinolin-4-yl)oxy)phenyl) acetamide], for which the IC50 was below 2.5 nM.

One may read the IC50 as the concentration at which inhibition is half-maximal.
